According to PubChem BioAssay (NCI):
Where “and” joins values, the source holds several entries; their conditions need not be identical. Identical values can stand only once.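 Where inhibition never reached the appropriate level, the endpoint shown equals the highest concentration tested. Otherwise, values were interpolated linearly from a five-concentration, 48-hour dose response in 96-well plates. GI50: concentration for 50% inhibition of growth. TGI: concentration producing complete growth inhibition.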

How the values were obtained:
Test in all cases: growth of human tumour cells (NCI), 48 h
[1] = test system: U251 CNS
[2] = test system: MDA-N
[3] = test system: SN12C renal
[4] = test system: UACC-62 melanoma
[5] = test system: HCT-116 colon
[6] = test system: MDA-MB-231 breast
[7] = test system: UO-31 renal
[8] = test system: 786-0 renal
[9] = test system: NCI-H460 lung
[10] = test system: SK-OV-3 ovarian
[11] = test system: NCI/ADR-RES ovarian
[12] = test system: K-562 leukemia
[13] = test system: MDA-MB-435
[14] = test system: MOLT-4 leukemia
[15] = test system: IGROV1 ovarian
[16] = test system: A549 NSCLC
[17] = test system: HS 578T breast
[18] = test system: UACC-257 melanoma
[19] = test system: TK-10 renal
[20] = test system: PC-3 prostate
[21] = test system: SK-MEL-2 melanoma
[22] = test system: RPMI-8226 leukemia
[23] = test system: HOP-62 NSCLC
[24] = test system: HL-60(TB) leukemia
[25] = test system: EKVX NSCLC
[26] = test system: CAKI-1 renal
[27] = test system: HT29 colon
[28] = test system: LOX IMVI melanoma
[29] = test system: DU-145 prostate
[30] = test system: SK-MEL-5 melanoma
[31] = test system: M14 melanoma
[32] = test system: NCI-H23 lung
[33] = test system: MCF7 breast
[34] = test system: RXF 393 renal
[35] = test system: BT-549 breast
[36] = test system: SNB-75 CNS
[37] = test system: NCI-H522 lung
[38] = test system: OVCAR-4 ovarian
[39] = test system: SF-295 CNS
[40] = test system: MALME-3M melanoma
[41] = test system: HCC-2998 colon
[42] = test system: ACHN renal
[43] = test system: CCRF-CEM leukemia
[44] = test system: OVCAR-5 ovarian
[45] = test system: SK-MEL-28 melanoma
[46] = test system: SW-620 colon
[47] = test system: OVCAR-8 ovarian
[48] = test system: NCI-H226 lung
[49] = test system: OVCAR-3 ovarian
[50] = test system: KM12 colon
[51] = test system: HCT-15 colon
[52] = test system: COLO 205 colon
[53] = test system: SF-268 CNS
[54] = test system: HOP-92 NSCLC
[55] = test system: SNB-19 CNS
[56] = test system: SR leukemia
[57] = test system: A498 renal
[58] = test system: SF-539 CNS

C=CCN(C(=O)OC(C)(C)C)C1=CC2C(C)=CN(S(=O)(=O)c3ccccc3)C2C(OCc2ccccc2)=C1 (configuration not stated)
TGI [1]: > 100 µM | TGI [2]: > 100 µM | TGI [3]: > 100 µM | TGI [4]: > 100 µM | TGI [5]: > 100 µM | TGI [6]: > 100 µM | TGI [7]: > 100 µM | TGI [8]: > 100 µM | TGI [9]: > 100 µM | TGI [10]: > 100 µM | TGI [11]: > 100 µM | TGI [12]: > 100 µM | TGI [13]: > 100 µM | TGI [14]: > 100 µM | TGI [15]: > 100 µM | TGI [16]: > 100 µM | TGI [17]: > 100 µM | TGI [18]: > 100 µM | TGI [19]: > 100 µM | TGI [20]: > 100 µM | TGI [21]: > 100 µM | TGI [22]: > 100 µM | TGI [23]: > 100 µM | TGI [24]: > 100 µM | TGI [25]: > 100 µM | TGI [26]: > 100 µM | TGI [27]: > 100 µM | TGI [28]: > 100 µM | TGI [29]: > 100 µM | TGI [30]: > 100 µM | TGI [31]: > 100 µM | TGI [32]: > 100 µM | TGI [33]: > 100 µM | TGI [34]: > 100 µM | TGI [35]: > 100 µM | TGI [36]: > 100 µM | TGI [37]: > 100 µM | TGI [38]: > 100 µM | TGI [39]: > 100 µM | TGI [40]: > 100 µM | TGI [41]: > 100 µM | TGI [42]: > 100 µM | TGI [43]: > 100 µM | TGI [44]: > 100 µM | TGI [45]: > 100 µM | TGI [46]: > 100 µM | TGI [47]: > 100 µM | TGI [48]: > 100 µM | TGI [49]: > 100 µM | TGI [50]: > 100 µM | TGI [51]: > 100 µM | TGI [52]: > 100 µM

CCc1c2c(nc3ccc(O)cc13)-c1cc3c(c(=O)n1C2)COC(=O)[C@]3(O)CC
GI50 [2]: 1.92 µM | TGI [2]: > 100 µM | TGI [53]: 3.68 µM | TGI [3]: > 100 µM | GI50 [54]: < 0.001 µM | TGI [5]: > 36.1 µM | GI50 [6]: 0.524 µM | TGI [6]: > 100 µM | TGI [7]: 0.0152 µM and 0.115 µM | TGI [9]: 0.147 µM and 0.536 µM | GI50 [10]: < 0.001 µM | TGI [10]: 0.342 µM and 0.792 µM | TGI [11]: 6.45 µM | TGI [12]: > 100 µM | TGI [13]: 0.292 µM and 1.57 µM | GI50 [16]: < 0.001 µM | TGI [16]: 8.34 µM | GI50 [17]: 4.12 µM | TGI [17]: > 100 µM | GI50 [18]: 0.0838 µM | GI50 [19]: 0.606 µM | GI50 [20]: 0.0857 µM | TGI [20]: > 100 µM | TGI [21]: 0.282 µM | GI50 [22]: < 0.001 µM | GI50 [25]: 0.545 µM | TGI [25]: > 100 µM | TGI [26]: 0.0286 µM and 0.0985 µM | TGI [27]: 0.526 µM | TGI [29]: 3.1 µM | TGI [31]: 0.488 µM and 0.156 µM | GI50 [35]: 0.0103 µM | TGI [35]: 0.293 µM | TGI [36]: 0.351 µM | TGI [37]: 0.885 µM and 0.317 µM | GI50 [38]: 0.279 µM | TGI [39]: 0.0503 µM | TGI [55]: > 12.7 µM | TGI [42]: 0.0322 µM and 0.123 µM | TGI [43]: > 100 µM | GI50 [44]: 0.246 µM | TGI [44]: 4.56 µM | GI50 [45]: 0.246 µM | TGI [45]: > 19.7 µM | TGI [46]: > 100 µM | TGI [48]: 0.0109 µM and 0.0892 µM | GI50 [49]: 0.0649 µM | TGI [49]: 2.55 µM and 1.67 µM | GI50 [50]: 0.0784 µM | TGI [50]: 2.64 µM | GI50 [51]: 0.206 µM | TGI [51]: > 100 µM | GI50 [52]: 0.0711 µM | TGI [52]: 12.2 µM

C=C(C)[C@@H]1CC[C@]2(COC(C)=O)CC[C@]3(C)[C@H](CC[C@@H]4[C@@]5(C)CC[C@H](OC(C)=O)C(C)(C)[C@@H]5CC[C@]43C)[C@@H]12
TGI [1]: > 50 µM | TGI [2]: > 50 µM | TGI [3]: > 50 µM | TGI [54]: > 50 µM | TGI [4]: > 50 µM | TGI [5]: > 50 µM | TGI [6]: > 50 µM | TGI [7]: > 50 µM | TGI [8]: > 50 µM | TGI [10]: > 50 µM | TGI [11]: > 50 µM | TGI [12]: > 50 µM | TGI [13]: > 50 µM | TGI [14]: > 50 µM | TGI [15]: > 50 µM | TGI [16]: > 50 µM | TGI [17]: > 50 µM | TGI [18]: > 50 µM | TGI [20]: > 50 µM | TGI [21]: > 50 µM | TGI [56]: > 50 µM | TGI [57]: > 50 µM | TGI [22]: > 50 µM | TGI [23]: > 50 µM | TGI [24]: > 50 µM | TGI [27]: > 50 µM | TGI [28]: > 50 µM | TGI [30]: > 50 µM | TGI [31]: > 50 µM | TGI [32]: > 50 µM | TGI [35]: > 50 µM | TGI [36]: > 50 µM | TGI [37]: > 50 µM | TGI [38]: > 50 µM | TGI [55]: > 50 µM | TGI [58]: > 50 µM | TGI [41]: 1.67 µM | TGI [42]: > 50 µM | TGI [43]: > 50 µM | TGI [45]: > 50 µM | TGI [46]: > 50 µM | TGI [47]: > 50 µM | TGI [48]: > 50 µM | TGI [49]: > 50 µM | TGI [51]: > 50 µM | TGI [52]: > 50 µM
